From ChEMBL document CHEMBL1201862, “PubChem BioAssay data set” (2004)
One block for each molecule: values may come before it. Activity calls are given as the source filed them.

Assays:
[1] = biological target: T1, Polyadenylate-binding protein 1 (Homo sapiens, UniProt P11940); test: PABP1 MLLE–PAM2 interaction inhibitors, dose response, miRNA deadenylation inhibitor project, biochemical, fluorescence polarization, Cy5-PAM2 peptide, secondary (AID 602260); format: functional; details: read-out: IC50_Mean
[2] = biological target: T1, Polyadenylate-binding protein 1; test: PABP1 MLLE–PAM2 binding inhibitor potency, dose response, biochemical, fluorescence polarization, FITC-PAM2 peptide (AID 602259); format: functional; details: read-out: IC50_Mean
[3] = biological target: T2, Short transient receptor potential channel 4 (Mus musculus, UniProt Q9QUQ5); test: mouse TRPC4 channel activators, dose response, cell-based, HEK293 TRPC4/mu-opioid, Fluo-4 calcium (AID 434937); format: functional
T2 sequence (Q9QUQ5 whole entry): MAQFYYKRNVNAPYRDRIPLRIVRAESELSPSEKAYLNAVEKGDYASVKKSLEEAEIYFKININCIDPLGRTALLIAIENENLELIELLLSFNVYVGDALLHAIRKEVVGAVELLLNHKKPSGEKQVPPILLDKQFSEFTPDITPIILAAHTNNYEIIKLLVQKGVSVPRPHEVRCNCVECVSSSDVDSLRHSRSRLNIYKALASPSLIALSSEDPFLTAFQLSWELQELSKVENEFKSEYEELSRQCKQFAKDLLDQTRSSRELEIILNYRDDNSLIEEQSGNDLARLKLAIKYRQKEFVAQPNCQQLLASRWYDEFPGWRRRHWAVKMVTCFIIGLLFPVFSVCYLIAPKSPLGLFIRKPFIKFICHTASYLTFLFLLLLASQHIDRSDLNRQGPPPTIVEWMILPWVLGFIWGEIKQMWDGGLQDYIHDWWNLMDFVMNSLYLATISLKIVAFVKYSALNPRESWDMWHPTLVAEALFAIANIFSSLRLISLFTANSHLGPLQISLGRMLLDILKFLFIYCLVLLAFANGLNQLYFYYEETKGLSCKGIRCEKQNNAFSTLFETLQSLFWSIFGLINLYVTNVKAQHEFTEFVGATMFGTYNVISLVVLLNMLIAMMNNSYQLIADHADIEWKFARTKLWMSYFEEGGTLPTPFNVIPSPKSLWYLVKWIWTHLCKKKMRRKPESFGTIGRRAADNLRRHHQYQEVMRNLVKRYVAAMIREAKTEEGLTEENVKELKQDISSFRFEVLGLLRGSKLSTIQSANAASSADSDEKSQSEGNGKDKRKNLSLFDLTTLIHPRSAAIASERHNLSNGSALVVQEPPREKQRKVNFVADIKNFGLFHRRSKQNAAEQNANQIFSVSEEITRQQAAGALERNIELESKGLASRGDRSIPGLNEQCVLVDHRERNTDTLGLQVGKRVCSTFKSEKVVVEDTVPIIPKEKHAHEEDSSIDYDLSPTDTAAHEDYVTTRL

[4] = control 3'UTR Renilla luciferase suppression, dose response, counter-screen for Shn3 inhibitor project, cell-based, Clone20-Shn3RL, cherry-picked (AID 624133); format: functional
[5] = Shn3 3'UTR reporter inhibitors, dose response, cell-based, Clone20 osteoblasts, firefly luciferase, cherry-picked (AID 624132); format: functional;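 further: firefly luciferase luminescence from reporter carrying the Shn3 3'UTR in osteoblasts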
cells [6] = format: functional, cell-based
cells [7] = format: functional, cell-based; remark: listed apart in the source
[8] = biological target: T3, Ubiquitin-conjugating enzyme E2 N (Homo sapiens, UniProt P61088); format: functional;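 further: Dose-response confirmation in a TR-FRET assay detecting UBC13-driven polyubiquitin chain formation, inhibition measured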
T3 sequence (P61088 whole entry): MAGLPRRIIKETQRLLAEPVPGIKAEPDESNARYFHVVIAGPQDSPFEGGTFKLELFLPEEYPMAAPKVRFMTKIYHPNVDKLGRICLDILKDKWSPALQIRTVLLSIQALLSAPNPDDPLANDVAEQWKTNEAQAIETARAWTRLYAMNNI

Coagulation factor XII = biological target: T4, Coagulation factor XII (Homo sapiens, UniProt P00748); format: functional;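 further: activated factor XIIa alpha cleaving a fluorogenic AMC peptide substrate; inhibitor potency from loss of enzyme activity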
T4 sequence (P00748 whole entry): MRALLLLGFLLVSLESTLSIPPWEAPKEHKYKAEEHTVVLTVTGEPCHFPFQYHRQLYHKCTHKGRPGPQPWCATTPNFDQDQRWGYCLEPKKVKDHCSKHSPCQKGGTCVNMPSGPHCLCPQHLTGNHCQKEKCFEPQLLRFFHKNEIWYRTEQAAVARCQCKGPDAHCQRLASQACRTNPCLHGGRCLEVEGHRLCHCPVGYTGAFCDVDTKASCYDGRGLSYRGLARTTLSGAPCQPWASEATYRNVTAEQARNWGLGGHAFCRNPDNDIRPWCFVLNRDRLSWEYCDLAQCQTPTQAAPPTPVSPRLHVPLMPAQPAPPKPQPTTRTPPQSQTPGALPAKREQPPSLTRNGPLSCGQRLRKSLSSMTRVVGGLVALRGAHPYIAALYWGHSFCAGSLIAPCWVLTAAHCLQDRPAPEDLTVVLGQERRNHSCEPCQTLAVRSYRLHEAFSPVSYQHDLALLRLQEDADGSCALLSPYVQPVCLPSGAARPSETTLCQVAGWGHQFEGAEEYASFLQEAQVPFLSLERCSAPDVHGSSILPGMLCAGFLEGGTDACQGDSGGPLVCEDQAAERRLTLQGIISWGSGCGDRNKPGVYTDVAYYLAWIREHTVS

[9] = biological target: T5, Rac GTPase-activating protein 1 (Homo sapiens, UniProt Q9H0H5); test: MgcRacGAP GTPase-activating activity inhibitors, confirmation, biochemical, ADP Hunter fluorescence, primary and confirmatory (AID 624330); format: functional
T5 sequence (Q9H0H5 whole entry): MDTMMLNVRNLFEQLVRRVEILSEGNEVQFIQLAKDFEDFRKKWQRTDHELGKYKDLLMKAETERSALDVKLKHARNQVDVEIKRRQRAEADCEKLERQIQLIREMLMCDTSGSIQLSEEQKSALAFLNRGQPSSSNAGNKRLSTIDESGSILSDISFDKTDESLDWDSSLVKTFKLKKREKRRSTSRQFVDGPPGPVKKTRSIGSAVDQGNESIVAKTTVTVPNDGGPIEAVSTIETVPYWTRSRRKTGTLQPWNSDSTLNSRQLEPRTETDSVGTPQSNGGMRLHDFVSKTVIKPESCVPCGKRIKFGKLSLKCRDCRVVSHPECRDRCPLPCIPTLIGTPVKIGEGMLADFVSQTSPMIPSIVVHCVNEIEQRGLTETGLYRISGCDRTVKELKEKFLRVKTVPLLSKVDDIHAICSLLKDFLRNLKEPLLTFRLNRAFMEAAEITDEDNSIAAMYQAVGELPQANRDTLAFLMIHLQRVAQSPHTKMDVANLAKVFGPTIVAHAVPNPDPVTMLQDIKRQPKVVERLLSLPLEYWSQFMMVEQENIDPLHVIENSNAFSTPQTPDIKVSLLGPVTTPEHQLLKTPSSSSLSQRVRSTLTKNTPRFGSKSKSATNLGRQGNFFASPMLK

Large T antigen = Large T antigen (Simian virus 40, UniProt P03070); format: functional, Betapolyomavirus macacae;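 further: Confirmatory-stage PubChem screen for compounds that inhibit SV40 T antigen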
[10] = biological target: Heat shock protein HSP 90-alpha (Homo sapiens, UniProt P07900); format: functional, organism-based

T1 sequence (P11940 whole entry): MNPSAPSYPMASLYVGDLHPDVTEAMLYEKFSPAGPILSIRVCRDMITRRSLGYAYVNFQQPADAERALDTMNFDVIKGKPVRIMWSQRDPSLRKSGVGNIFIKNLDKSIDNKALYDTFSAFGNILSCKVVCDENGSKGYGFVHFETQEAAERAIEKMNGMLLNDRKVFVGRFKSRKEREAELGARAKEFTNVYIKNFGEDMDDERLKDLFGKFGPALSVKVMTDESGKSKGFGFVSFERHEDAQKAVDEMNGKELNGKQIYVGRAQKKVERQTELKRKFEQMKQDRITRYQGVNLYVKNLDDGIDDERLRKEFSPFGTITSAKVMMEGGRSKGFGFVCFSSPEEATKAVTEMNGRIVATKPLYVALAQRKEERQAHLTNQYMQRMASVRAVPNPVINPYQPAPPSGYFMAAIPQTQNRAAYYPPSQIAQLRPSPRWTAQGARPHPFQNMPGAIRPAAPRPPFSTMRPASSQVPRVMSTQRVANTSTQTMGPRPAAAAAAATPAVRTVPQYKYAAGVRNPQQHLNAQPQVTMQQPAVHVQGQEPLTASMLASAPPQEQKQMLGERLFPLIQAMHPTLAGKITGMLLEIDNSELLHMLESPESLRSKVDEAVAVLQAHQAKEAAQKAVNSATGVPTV
Chain of Large T antigen (P03070 whole entry): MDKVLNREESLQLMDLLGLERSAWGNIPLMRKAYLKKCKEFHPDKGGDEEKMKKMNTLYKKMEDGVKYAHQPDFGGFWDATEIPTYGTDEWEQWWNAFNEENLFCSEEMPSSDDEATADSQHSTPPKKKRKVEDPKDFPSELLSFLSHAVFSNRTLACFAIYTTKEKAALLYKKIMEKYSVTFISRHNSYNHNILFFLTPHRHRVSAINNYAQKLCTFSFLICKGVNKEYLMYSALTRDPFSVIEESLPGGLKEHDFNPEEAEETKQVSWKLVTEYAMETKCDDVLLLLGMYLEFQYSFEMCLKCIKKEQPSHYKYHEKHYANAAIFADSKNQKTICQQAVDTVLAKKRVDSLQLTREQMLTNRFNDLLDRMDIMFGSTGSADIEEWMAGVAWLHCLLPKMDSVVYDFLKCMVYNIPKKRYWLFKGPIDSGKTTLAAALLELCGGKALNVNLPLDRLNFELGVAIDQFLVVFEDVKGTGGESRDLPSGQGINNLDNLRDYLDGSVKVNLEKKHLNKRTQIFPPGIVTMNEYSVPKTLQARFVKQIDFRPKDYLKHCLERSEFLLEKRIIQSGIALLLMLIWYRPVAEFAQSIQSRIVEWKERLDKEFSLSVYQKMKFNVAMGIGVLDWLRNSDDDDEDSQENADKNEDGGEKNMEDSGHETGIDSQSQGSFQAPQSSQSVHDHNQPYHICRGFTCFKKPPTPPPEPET

SMILES: CCc1ccc(C(N)=S)cc1
IC50 [1]: > 66 µM (inactive) | IC50 [2]: > 66 µM (inactive)

SMILES: CC1CN(c2ccc([N+](=O)[O-])c3cccnc23)CC(C)N1 (configuration not stated)
EC50 [3]: 0.335 µM (active)

SMILES: CC(C)CCC(C(=O)O)C(C)CC(=O)NNC(=O)c1ccco1 (configuration not stated)
AC50 [4]: 19.9 µM (active) | AC50 [5]: > 70 µM (inactive)

SMILES: O=C1CC(Nc2ccccc2)C(=O)N1Cc1ccccc1 (configuration not stated)
EC50 (cells [6]): > 350 µM (not active) | EC50 (cells [7]): > 350 µM (not active)

SMILES: C=CCn1c(N)c(C(=O)OCC)sc1=S
IC50 [1]: > 66 µM (inactive) | IC50 [2]: > 66 µM (inactive)

SMILES: COC(C[C@H](O)C[C@@H](O)[C@H](C)OCc1ccccc1)OC
IC50 (Coagulation factor XII): > 50 µM (inactive)

SMILES: C#CCOCCOCCOCCNc1nc(N2CCN(C(=O)[C@H](CCCN=C(N)N)n3cc(C(N)[C@@H](C)CC)nn3)CC2)nc(N2CCN(C(=O)[C@H](CC(N)=O)n3cc([C@@H](N)CC(N)=O)nn3)CC2)n1 (some centres not stated)
IC50 [8]: > 20 µM (inactive)

SMILES: Nc1ncnc2c1ncn2CCN1CCOCC1
EC50 (cells [6]): > 350 µM (not active) | EC50 (cells [7]): > 350 µM (not active)

The next lines start with the values.

IC50 [8]: > 20 µM (inactive)
SMILES: O=C(CCCCCN1C(=O)c2cccc3cccc(c23)C1=O)NC1CCS(=O)(=O)C1 (configuration not stated)

IC50 (Coagulation factor XII): > 50 µM (inactive)
SMILES: CCC(CO)n1c(SCc2cc(=O)oc3cc(C)ccc23)nc2ccccc2c1=O (configuration not stated)

IC50 (Coagulation factor XII): > 50 µM (inactive)
SMILES: Cc1ccc(OCC(=O)Nc2nnn(C)n2)c(C)c1

IC50 (Coagulation factor XII): > 50 µM (inactive)
SMILES: CCOC(=O)c1cccc(NC(=O)CSc2nnc(-c3ccoc3C)n2CCOC)c1

IC50 [1]: > 66 µM (inactive) | IC50 [2]: > 66 µM (inactive) | IC50 [9]: 95.4 µM (active) | IC50 (Large T antigen): 35.1 µM (active)
SMILES: CCOC(=O)c1[nH]c2ccccc2c1N=C(S)Nc1cccc(C)c1C

EC50 [3]: 0.668 µM (active)
SMILES: CCOC(=O)C1(Cc2cccc(F)c2)CCN(Cc2cnn(CC)c2)CC1

IC50 [8]: > 20 µM (inactive)
SMILES: COc1cccc(-c2nnc3n2N=C(c2cc(OC)ccc2OC)CS3)c1

IC50 (Coagulation factor XII): > 50 µM (inactive)
SMILES: O=C(CCC(=O)N/N=C/c1ccc(Br)s1)NCc1ccccc1

AC50 [10]: 1.1 µM (active)
SMILES: COc1ccc(C(=O)O/N=C2\C(=O)N(C)c3ccccc32)cc1

IC50 [1]: > 66 µM (inactive) | IC50 [2]: 33.7 µM (inactive)
SMILES: COc1cc(-c2cc(=O)c3ccc(O)cc3o2)cc(OC)c1OC
